Laboratory results: patent publication EP4736861A1, “ORAL COMPOSITION CONTAINING INORGANIC POROUS BODY” (Tanabe Pharma Corporation, priority 2023, dated 2025)

test: not given; conditions: acidic concomitant drugs; source not stated; cited from earlier work

Row | Structure (SMILES) | pKa
1 | CC(=O)Nc1ccc(CC(=O)O)cc1 [Actarit] | 3.94
2 | Oc1ncnc2[nH]ncc12 [Allopurinol] | 9.50

same assay, conditions: basic concomitant drugs; source not stated; cited from earlier work

Row | Structure (SMILES) | pKa of conjugate acid
3 | NC(=O)N1c2ccccc2C=Cc2ccccc21 [Carbamazepine] | 7
4 | COc1ccccc1OCCNCC(O)COc1cccc2[nH]c3ccccc3c12 (stereo not shown) [Carvedilol] | 7.8
5 | CCC[C@@H]1C[C@@H](C(=O)N[C@@H]([C@H]2O[C@H](SC)[C@H](O)[C@@H](O)[C@H]2O)[C@@H](C)O)N(C)C1 [Lincomycin] | 7.6
6 | CC12CC3CC(C)(C1)CC(N)(C3)C2 [Memantine] | 10.58
7 | Cc1ncc([N+](=O)[O-])n1CCO [Metronidazole] | 2.6
8 | Clc1ccc(COC(Cn2ccnc2)c2ccc(Cl)cc2Cl)c(Cl)c1 (stereo not shown) [Miconazole] | 5.65
9 | OCCN1C[C@H](O)[C@@H](O)[C@H](O)[C@H]1CO [Miglitol] | 5.9
10 | CN1CCN2c3ncccc3Cc3ccccc3C2C1 (stereo not shown) [Mirtazapine] | 3.71
11 | Cc1nccn1CC1CCc2c(c3ccccc3n2C)C1=O (stereo not shown) [Ondansetron] | 7.4
12 | CCOC(=O)C1=C[C@@H](OC(CC)CC)[C@H](NC(C)=O)[C@@H](N)C1 [Oseltamivir] | 7.75

test: not given; conditions: PBPK parameter; from Shimizu et al.; cited from earlier work

Row | Structure (SMILES) | blood cell-to-plasma partition coefficient | liver-to-plasma partition coefficient | plasma protein unbound fraction
13 | [2H]C([2H])([2H])[N+]([O-])(C([2H])([2H])[2H])C([2H])([2H])[2H] [d9-TMAO] | 0.845 | 0.675 | 0.714
14 | [2H]C([2H])([2H])N(C([2H])([2H])[2H])C([2H])([2H])[2H] [d9-TMA] | 0.719 | 0.752 | 0.9

test: PBPK model: construction and simulation of plasma concentration and urinary excretion; conditions: PBPK parameter, mice
Text: For the construction, in vivo data from the vehicle group of the previously described "In Vivo Study Using a Choline-Load Fasted Mouse Model" and in vivo data from the single-dose PK study were used.
The following steps were applied for the construction of the PBPK model. • * The liver-to-plasma partition coefficient, blood cell-to-plasma partition coefficient, and plasma protein unbound fraction for d9-TMA and d9-TMAO were cited from the report by Shimizu et al.^1), assuming no species difference. • * The liver volume and hepatic blood flow rate were cited from the report by Yamashita et al.^2). • * Using the data from the single intravenous dose PK study of d9-TMA and d9-TMAO, the PK parameters for d9-TMA and d9-TMAO were estimated. […] For d9-TMA, assuming that adsorption equilibrium is reached in the gastrointestinal tract, it was considered to follow the formula: inhibition ratio of d9-TMA absorption from gastrointestinal tract = theoretical acid amount of unadsorbed zeolite / (water volume in the colon × dissociation constant + theoretical acid amount of unadsorbed zeolite), and the dissociation constant of zeolite and d9-TMA was calculated. The water volume in the colon was cited from the value in SimCYP (V23) manufactured by Certara.

Row | conversion ratio from d9-choline to d9-TMA | Structure (SMILES)
15 | 0.9324 | [2H]C([2H])([2H])[N+](CCO)(C([2H])([2H])[2H])C([2H])([2H])[2H].[Cl-] [d9-choline]
